Measured values as given in EP0501713B1, “Optically active aminoketone derivative and method for preparing same” (MITSUI TOATSU CHEMICALS, Inc., priority 1991, dated 1992).

Columns and labels:
[1] = test system: decerebrate rigidity induced by radio frequency lesions of rat brains; test: Decerebrate rigidity remission action (method of Ono et al.); format: in vivo, Wistar male rat; settings: i.v., tension before administration = 100%
Excerpt: Pharmacol., 18, 57 (1987)], the rigidity remission action of the optically active aminoketone derivative of the present invention for the decerebrate rigidity induced by radio frequency lesions of rat brains was investigated.
Each Wistar male rat (body weight: 300-400 g) was anesthetized with ether and then fixed on a stereotaxic apparatus. In accordance with the Pellegrino's stereotaxic brain atlas, the electrodes of a lesion generator (manufactured by Radionics Company) were punctuated to AP: 0, L: ±1.5, V: -3. […] The rigidified rat was fixed in the abdominal position, and the tension of each extension reflex of the extensor of the hind limbs was recorded. Assuming that the tension before the administration was 100%, the rate of rigidity inhibition is expressed in terms of percentage: (100 -(Tension after administration)/(Tension before administration)× 100) [formula]
The test compounds were intravenously administered at 3 and 6 mg/kg.

[2] = test system: skeletal muscle afferent discharge; test: Action to skeletal muscle afferent discharge (musculus triceps surae nerve fiber); format: in vivo, Wistar rats; settings: i.v., rat, discharge frequency before administration = 100%, tension of 20 g
Excerpt: The musculus triceps surae was separated from each of Wistar rats (9 to 10 weeks old; Japanese rats) under a mixed anesthetic of urethane and α-chlorarose. There were cut out all the branches of the sciatic nerve except the branch which controls the musculus triceps surae. The medulla spinalis was subjected to laminectomy, and roots of L6 or less were cut out. […] A nerve fiber coming from the musculus triceps surae was only separated from the L5 posterior root. A tension of 20 g was applied to the peripheral end of the musculus triceps surae, and each discharge frequency of the nerve was recorded. Assuming that the discharge frequency before the administration is 100%, the discharge frequency of the nerve was expressed in terms of percentage: (100 -(Discharge frequency at most inhibition)/(Discharge frequency before administration)× 100) [formula]
The test compounds were intravenously administered at 6 and 12 mg/kg.

Acute toxicity = format: in vivo; settings: mouse, in vivo, ip, intraperitoneally administered; mice observed 72 hours later
Experimental: (§1) ddy Male mice (body weights: 25-30 g) were used. Each test compound was intraperitoneally administered, and 72 hours later, the mice were observed as to whether they were alive or dead.
(§2) 50% lethal doses LD50 (mg/kg) were calculated.

ddy Male mice = test: Acute toxicity; format: in vivo; settings: intraperitoneally administered; mice observed 72 hours later; 4320 min
Experimental: as §1, §2

SMILES: CCC(CN1CCCC1)C(=O)c1cc(-c2ccccc2)no1 (racemic) [racemic form, 3-phenyl-5-[2-(1-pyrrolidinylmethyl)butyryl]isoxazole, reference compound]
- Rigidity Inhibition (%) ([1]; 3 mg/kg): 56%
- Rigidity Inhibition (%) ([1]; 6 mg/kg): 65%
- Discharge Frequency (%) ([2]; 6 mg/kg): 46%
- Discharge Frequency (%) ([2]; 12 mg/kg): 27%
- LD50 at 72 h (Acute toxicity): 445 mg/kg

SMILES: CCC(CN1CCCC1)C(=O)c1cc(-c2ccccc2)no1 (single isomer, unassigned; (-)) [(-) form, (-)-3-phenyl-5-[2-(1-pyrrolidinylmethyl)butyryl]isoxazole]
- Rigidity Inhibition (%) ([1]; 3 mg/kg): 33%
- Rigidity Inhibition (%) ([1]; 6 mg/kg): 53%
- Discharge Frequency (%) ([2]; 6 mg/kg): 83%
- LD50 (ddy Male mice): 760 mg/kg

SMILES: CCC(CN1CCCC1)C(=O)c1cc(-c2ccccc2)no1 (single isomer, unassigned; (+)) [(+) form, (+)-3-phenyl-5-[2-(1-pyrrolidinylmethyl)butyryl]isoxazole]
- Rigidity Inhibition (%) ([1]; 3 mg/kg): 59%
- Rigidity Inhibition (%) ([1]; 6 mg/kg): 78%
- Discharge Frequency (%) ([2]; 6 mg/kg): 28%
- Discharge Frequency (%) ([2]; 12 mg/kg): 14%
- LD50 at 72 h (Acute toxicity): 386 mg/kg
